Test results reported in US20250129073A1, “INHIBITOR OF RECEPTOR-INTERACTING PROTEIN KINASE 1, AND PREPARATION METHOD AND USE THEREFOR” (CHINA PHARMACEUTICAL UNIVERSITY, priority 2021, published 2025).

Key:
RIPK1 kinase = RIPK1 kinase (Homo sapiens (Human), UniProt Q13546); experiment: RIPK1 kinase inhibitory assay (ADP-Glo); format: biochemical; details: for inhibition at 10 µM: 10 μM compound, read-out: Inhibition rate of RIPK1 at 10 μM (%)
Procedure: Materials and Instruments: ADP-Glo kinase kit (purchased from Promega), RIPK1 GST-Th-Tag (purchased from Bps Bioscience), MBP substrate (purchased from Millipore), nunc 384-well plate, ATP fluorescence analyzer Paradigm detection platform (purchased from Beckman coulter)
The compounds were diluted in DMSO and configured into a solution with a final concentration of 10 mM; Dilute RIP1 kinase from 140 ng/μL to 20 ng/μL for use. Dilute 10 mM of ATP to 100 μM for later use; Dilute 5 mg/mL of MBP to 1 mg/mL for later use. Appropriate embodiments were added into the well of the 384-well plate, 10 μl […] ATP was evenly mixed with 1 μl 1 mg/mL MB P, the mixed solution was added to the well, and 2 μL […] RIP1 kinase was added to the hole, and then incubated at room temperature for 1 h. Subsequently, 5 μL ADP-Glo reagent was added to each well and incubated at room temperature for 40 min. Then, 10 μL ADP-Glo detection reagent was added to each well and incubated at room temperature for 30 min. Finally, the RLU value (relative light unit) of each well was measured by ATP fluorometer, and each sample was repeated twice. Inhibition rate=(RLU value of blank group−RLU value of drug administration group)/RLU value of blank group×100%.

U937 cells = experiment: Cell anti-necroptosis activity assay (LPS + Z-VAD-FMK, CCK8); format: cell-based; details: Homo sapiens, U-937; PMA-differentiated U937, LPS 100 ng/ml + Z-VAD-FMK 20 μM, 24 h; read-out: EC50 of inhibition of necroptosis
Procedure: Materials: U937 cell line (human myeloid leukemia cells), RPMI 1640 medium (purchased from Gibco, USA), penicillin-streptomycin double antibody (purchased from Gibco, USA), fetal bovine serum (purchased from genetic, USA), tetradecanoylphorbol acetate (purchased from biyuntian Biotechnology Co., Ltd.), CCK8 cell proliferation detection kit (purchased from biyuntian Biotechnology Co., Ltd), Z-VAD-FMK (from APExBIO, USA) and LPS (from Sigma, USA).
U937 cells were cultured in RPMI 1640 containing 10% heat inactivated fetal bovine serum and 1% penicillin-streptomycin in a constant temperature cell incubator at 37° C. and 5% CO2, and subcultured every 1-2 days. Human monocytic cell line U937 cells could be induced to differentiate into mature monocytes/macrophages after stimulation with tetradecanoylphorbol acetate (PMA). The cells in the logarithmic growth phase were seeded in 96 well plates at a density of 4×10^4 cells/well and cultured. PMA 100 ng/ml was added for 24 h, and then the fresh medium was changed. The necroptosis model was constructed by stimulation of LPS and caspase inhibitor Z-VAD-FMK. In the experimental groups, LPS (100 ng/ml) was added for 1 hour, and then the solvent control (DMSO) or different concentrations of compounds to be tested (30 μM, 10 μM, 3 μM, 1 μM, 300 nM, 100 nM, 30 nM 7 concentrations in total) for 1 h, and then the experimental groups were treated with caspase inhibitor Z-VAD-FMK (20 μM). The cell viability was detected after 24 h of culture. The control groups were not treated with LPS, drugs and Z-VAD-FMK. No cells were added to the blank hole, only the culture medium. Each group is set with 4 parallel. CCK8 cell proliferation assay kit was used to detect the cell viability and survival rate, and the operation was carried out according to the kit instructions. The cell supernatant was added with 10 μL CCK8 detection reagent, and the cell absorbance (450 nm) was detected by a microplate reader after 0.5 h. Calculate the cell death rate (%)=(average absorbance of control well−average absorbance of experimental group)/(average absorbance of control well−average absorbance of the blank well)×100. Finally, the half effective concentration (EC50) of the drug was calculated by GraphPad Prism 7.0® software.

Chain of RIPK1 kinase (Q13546 whole entry): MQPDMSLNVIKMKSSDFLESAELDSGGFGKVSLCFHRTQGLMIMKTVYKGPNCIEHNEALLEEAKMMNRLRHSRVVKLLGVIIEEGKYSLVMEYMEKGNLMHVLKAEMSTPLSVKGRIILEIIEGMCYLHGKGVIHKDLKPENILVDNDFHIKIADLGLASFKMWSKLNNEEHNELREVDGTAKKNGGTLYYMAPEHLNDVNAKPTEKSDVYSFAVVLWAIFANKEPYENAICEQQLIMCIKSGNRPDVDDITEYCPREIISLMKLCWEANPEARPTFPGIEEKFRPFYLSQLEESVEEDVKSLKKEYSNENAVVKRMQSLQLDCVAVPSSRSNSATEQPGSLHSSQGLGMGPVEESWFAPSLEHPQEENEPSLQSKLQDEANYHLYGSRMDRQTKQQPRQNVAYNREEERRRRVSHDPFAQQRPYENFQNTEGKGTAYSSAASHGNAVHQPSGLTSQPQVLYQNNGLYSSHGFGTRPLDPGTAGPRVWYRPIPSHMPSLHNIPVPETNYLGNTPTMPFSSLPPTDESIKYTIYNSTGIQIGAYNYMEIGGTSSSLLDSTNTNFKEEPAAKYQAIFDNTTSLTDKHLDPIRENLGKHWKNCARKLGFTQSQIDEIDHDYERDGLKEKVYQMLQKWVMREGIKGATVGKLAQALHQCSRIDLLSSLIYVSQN

SMILES | IC50 (RIPK1 kinase) [nM] | inhibition at 10 µM (RIPK1 kinase) [%] | EC50 (U937 cells) [nM]
O=C1N(Cc2cc(F)ccc2F)CCC12CCN(c1ncccn1)CC2 [Compound 51, 2-(2,5-difluorobenzyl)-8-(pyrimidin-2-yl)-2,8-diazaspiro[4.5]decan-1-one] | – | 41 | –
N#Cc1ccnc(N2CCC3(CCN(Cc4cc(F)ccc4F)C3=O)CC2)n1 [Compound 52, 2-(2-(2,5-difluorobenzyl)-1-oxo-2,8-diazaspiro[4.5]decan-8-yl) pyrimidine-4-carbonitrile] | – | > 50 | –
Cc1nnc(N2CCC3(CCN(Cc4cc(F)ccc4F)C3=O)CC2)o1 [Compound 55, 2-(2,5-difluorobenzyl)-8-(5-methyl-1,3,4-oxadiazol-2-yl)-2,8-diazaspiro[4.5]decan-1-one] | – | 13 | –
N#Cc1ccc(N2CCC3(CCN(Cc4cc(F)ccc4F)C3=O)CC2)nn1 [Compound 56, 6-(2-(2,5-difluorobenzyl)-1-oxo-2,8-diazaspiro[4.5]decan-8-yl)pyridazine-3-carbonitrile] | – | 17 | –
N#Cc1cc(N2CCC3(CCN(Cc4cc(F)ccc4F)C3=O)CC2)ncn1 [Compound 58, 6-(2-(2,5-difluorobenzyl)-1-oxo-2,8-diazaspiro[4.5]decan-8-yl)pyrimidine-4-carbonitrile] | – | > 50 | –
O=C(c1ccccc1)N1CCC2(CC1)N=CN(Cc1ccccc1)C2=O [Compound 59, 8-benzoyl-3-benzyl-1,3,8-triazaspiro[4.5]dec-1-en-4-one] | – | 38 | –
O=C(c1ccccc1)N1CCC2(CC1)N=CN(Cc1ccccc1F)C2=O [Compound 60, 8-benzoyl-3-(2-fluorobenzyl)-1,3,8-triazaspiro[4.5]dec-1-en-4-one] | – | > 50 | –
O=C(c1ccccc1)N1CCC2(CC1)N=CN(Cc1cc(F)ccc1F)C2=O [Compound 61, 8-benzoyl-3-(2,5-difluorobenzyl)-1,3,8-triazaspiro[4.5]dec-1-en-4-one] | – | > 50 | –
O=C(c1ccccc1)N1CCC2(C=NN(Cc3ccccc3)C2=O)CC1 [Compound 62, 8-benzoyl-2-benzyl-2,3,8-triazaspiro[4.5]dec-3-en-1-one] | – | > 50 | –
O=C(c1ccccc1)N1CCC2(C=NN(Cc3ccccc3F)C2=O)CC1 [Compound 63, 8-benzoyl-2-(2-fluorobenzyl)-2,3,8-triazaspiro[4.5]dec-3-en-1-one] | – | > 50 | –
O=C(c1ccccc1)N1CCC2(C=NN(Cc3cccc(F)c3)C2=O)CC1 [Compound 64, 8-benzoyl-2-(3-fluorobenzyl)-2,3,8-triazaspiro[4.5]dec-3-en-1-one] | – | > 50 | –
O=C(c1ccccc1)N1CCC2(C=NN(Cc3ccc(F)cc3)C2=O)CC1 [Compound 65, 8-benzoyl-2-(4-fluorobenzyl)-2,3,8-triazaspiro[4.5]dec-3-en-1-one] | – | 27 | –
O=C(c1ccccc1)N1CCC2(C=NN(Cc3cc(F)cc(F)c3)C2=O)CC1 [Compound 67, 8-benzoyl-2-(3,5-difluorobenzyl)-2,3,8-triazaspiro[4.5]dec-3-en-1-one] | – | > 50 | –
O=C(c1ccccc1)N1CCC2(C=NN(Cc3cccc(C(F)(F)F)c3)C2=O)CC1 [Compound 68, 8-benzoyl-2-(3-(trifluoromethyl)benzyl)-2,3,8-triazaspiro[4.5]dec-3-en-1-one] | – | 13 | –
N#Cc1ccc(CN2N=CC3(CCN(C(=O)c4ccccc4)CC3)C2=O)cc1 [Compound 69, 4-((8-benzoyl-1-oxo-2,3,8-triazaspiro[4.5]dec-3-en-2-yl)methyl) benzonitrile] | – | 9 | –
O=C(c1ccccc1)N1CCC2(C=NN(Cc3cccc(Cl)c3)C2=O)CC1 [Compound 70, 8-benzoyl-2-(3-chlorobenzyl)-2,3,8-triazaspiro[4.5]dec-3-en-1-one] | – | 44 | –
O=C(c1ccccc1)N1CCC2(CC1)CNN(Cc1ccccc1)C2=O [Compound 71, 8-benzoyl-2-benzyl-2,3,8-triazaspiro[4.5]decan-1-one] | – | 31 | –
O=C(c1ccccc1)N1CCC2(CC1)CNN(Cc1ccccc1F)C2=O [Compound 72, 8-benzoyl-2-(2-fluorobenzyl)-2,3,8-triazaspiro[4.5]decan-1-one] | – | 40 | –
O=C(c1ccccc1)N1CCC2(CC1)CN(Cc1ccccc1)C2=O [Compound 73, 7-benzoyl-2-benzyl-2,7-diazaspiro[3.5]nonan-1-one] | – | 45 | –
O=C(c1ccccc1)N1CCC2(CCCN(Cc3ccccc3)C2=O)CC1 [Compound 74, 9-benzoyl-2-benzyl-2,9-diazaspiro[5.5]undecan-1-one] | – | > 50 | –
CN1C(=O)C(Cc2c[nH]c3ccccc23)NC1=S (stereo not shown) [Nec-1, reference compound] | 1140 | – | –

The next lines start with results.

IC50 (RIPK1 kinase) [nM] | inhibition at 10 µM (RIPK1 kinase) [%] | SMILES | EC50 (U937 cells) [nM]
693 | > 50 | O=C(c1ccccc1)N1CCC2(CC1)CCN(Cc1cc(F)ccc1F)C2=O [Compound 34, 8-benzoyl-2-(2,5-difluorobenzyl)-2,8-diazaspiro[4.5]decan-1-one] | 1340
1040 | > 50 | O=C(c1cnco1)N1CCC2(CC1)CCN(Cc1cc(F)ccc1F)C2=O [Compound 42, 2-(2,5-difluorobenzyl)-8-(oxazole-5-carbonyl)-2,8-diazaspiro[4.5]decan-1-one] | 1650
186 | > 50 | O=C(c1ccc2cc[nH]c2c1)N1CCC2(CC1)CCN(Cc1ccccc1F)C2=O [Compound 44, 2-(2-fluorobenzyl)-8-(1H-indole-6-carbonyl)-2,8-diazaspiro[4.5]decan-1-one] | 161
624 | > 50 | O=C(c1ccc2cc[nH]c2c1)N1CCC2(CC1)CCN(Cc1cc(F)ccc1F)C2=O [Compound 46, 2-(2,5-difluorobenzyl)-8-(1H-indole-6-carbonyl)-2,8-diazaspiro[4.5]decan-1-one] | 1200
– | > 50 | O=C(c1ccccc1)N1CCC2(CC1)CCN(Cc1cc(F)cc(F)c1F)C2=O [Compound 53, 8-benzoyl-2-(2,3,5-trifluorobenzyl)-2,8-diazaspiro[4.5]decan-1-one] | –
– | 6 | N#Cc1ccccc1CN1CCC2(CCN(C(=O)c3ccccc3)CC2)C1=O [Compound 54, 2-((8-benzoyl-1-oxo-2,8-diazaspiro[4.5]decan-2-yl)methyl) benzonitrile] | –
– | 25 | N#Cc1ccc(F)cc1CN1CCC2(CCN(C(=O)c3ccccc3)CC2)C1=O [Compound 57, 2-((8-benzoyl-1-oxo-2,8-diazaspiro[4.5]decan-2-yl)methyl)-4-fluorobenzonitrile] | –
– | > 50 | O=C(c1ccccc1)N1CCC2(C=NN(Cc3cc(F)ccc3F)C2=O)CC1 [Compound 66, 8-benzoyl-2-(2,5-difluorobenzyl)-2,3,8-triazaspiro[4.5]dec-3-en-1-one] | –
– | > 50 | O=C(c1cscn1)N1CCC2(CC1)CCN(Cc1cc(F)ccc1F)C2=O [Compound 75, 2-(2,5-difluorobenzyl)-8-(thiazole-4-carbonyl)-2,8-diazaspiro [4.5]decan-1-one] | –
– | > 50 | O=C(c1ccc2ccoc2c1)N1CCC2(CC1)CCN(Cc1cc(F)ccc1F)C2=O [Compound 76, 8-(benzofuran-6-carbonyl)-2-(2,5-difluorobenzyl)-2,8-diazaspiro [4.5]decan-1-one] | –
– | > 50 | COc1cccc(C(=O)N2CCC3(CC2)CCN(Cc2cc(F)ccc2F)C3=O)c1 [Compound 77, 2-(2,5-difluorobenzyl)-8-(3-methoxybenzoyl)-2,8-diazaspiro[4.5]decan-1-one] | –
